Patent US20090186915A1, “Compositions and methods for treatment of glioblastoma, gliosarcoma, NSCLC, and head and neck cancer” (Unibioscreen S. A., priority 2006, published 2009)
Like-named read-outs stand apart in the source and are kept apart here.

Key:
PC-3 = test: Autophagy: acidic vesicular organelles, acridine orange flow cytometry, PC-3; format: cell-based, human; conditions: red fluorescence, up to 10 μM
Procedure: The cytoplasm and nucleus fluoresce green in acridine orange-stained cells, and the acidic compartments fluoresce red. The intensity of the red fluorescence is proportional to the degree of acidity and the volume of acidic vesicular organelles, including autophagic vacuoles. To quantify the development of acidic vesicular organelles, the cells were stained with acridine orange for 15 minutes and removed from the plate with trypsinization. Cells were then analyzed by flow cytometry. Each sample was evaluated in triplicate.

U-373 MG = test: Cell migration (phase-contrast microscopy); format: cell-based; conditions: Homo sapiens, U373 MG, 22 h, read-out: Maximum effects (cell migration); for Emax at 0.1 µM: at 10^−7 M
Procedure: Cells of different cancer lines, i.e. U-373 MG (Glioma cancer) and A549 (Lung cancer) were seeded on culture flask 48 hours before the migration experiment. On the test day, cells were treated with or without the compound of example 2 in closed Falcon dishes containing a buffered medium at a controlled temperature (37.0±0.1° C.) for 12 or 22 hours, as noted in the right column of table 3. The compound of example 2 was used at three non-cytotoxic concentrations (10^−6 M, 10^−7M, 10^−8 M). Migration of the cells was observed by means of a CCD-camera mounted on a phase-contrast microscope. Statistical analysis of the migration, with the non-parametric Mann-Whitney test, was established for 25% and 50% of the most motile cells and for the entire cell population.

Hs683 or U373 cells = test: Apoptosis by Annexin V-FITC flow cytometry, glioma cells; format: cell-based, human; conditions: 10 μM for 72 h
Procedure: UNBS5162-induced apoptotic effects as evaluated by flow cytometry with Annexin V-FITC staining of Hs683 or U373 cells either left untreated (0 μM) or treated with 1 and 10 μM UNBS5162 for 72 h, either as a single treatment (gray bars) or as repeated (“chronic”; black bars) treatment (i.e. 1 μM or 10 μM each day for five days, “5×1”). The data are presented as means+SEM. “*” means that all GBM cells died before the end of the experiment.

MCF-7 = test: MTT colorimetric assay, MCF-7 cells; format: cell-based; conditions: Homo sapiens, MCF7, 72 h, 3 days of culturing, mean of six determinations, read-out: IC50 (μM) In Vitro Growth Inhibition
Procedure: (§1) The overall growth of human cancer cell lines was determined by means of the calorimetric MTT (3-[4,5-dimethylthiazol-2-yl]-diphenyl tetrazolium bromide; Sigma) assay, as detailed previously.

E2F1 = E2F1 expression (Western blot, RT-PCR), PC-3; format: cell-based, human; conditions: 10 μM
Procedure: Reverse transcription reactions were carried out in a thermal cycler (Thermocycler; Westburg, Leusden, The Netherlands). The purification of the cDNAs produced was undertaken using the High Pure PCR Product Purification Kit (Roche Diagnostics, Mannheim, Germany) in accordance with the manufacturer's instructions. Quantitative PCR reactions were performed with 50 ng of purified cDNA in a LightCycler thermocycler instrument (Roche Diagnostics) using LCFastart DNA Master SYBR Green 1 (Roche Diagnostics). After amplification, data analysis was carried out by means of the “Fit points” algorithm of the LightCycler quantification software. A standard curve enabled cDNA quantification of samples to be effected. […]
Cell extracts were prepared by the lysis of subconfluent PC-3 cells directly in boiling lysis buffer (10 mM Tris, pH 7.4, 1 mM Na3O4V, 1% SDS, pH 7.4). Approximately 40 μg of extracted proteins (evaluated by the bicinchoninic acid protein assay; Pierce, Perbio Science, Erembodegem, Belgium) was then loaded onto a denaturing polyacrylamide gel. The proteins submitted to Western blot analyses were detected using primary antibodies provided by: 1) CST Technologies, Bioké, Leiden, The Netherlands: Rb (1:2000) and p-Rb (1:1000); 2) BD Transduction Laboratories, Erembodegem, Belgium: E2F1 (1:400); and 3) AbCam, Cambridge, UK: tubulin (1:3000, used as a loading control). […]

A549 = test: MTT colorimetric assay, A549 cells; format: cell-based; conditions: Homo sapiens, 72 h, 3 days of culturing, mean of six determinations, read-out: IC50 (μM) In Vitro Growth Inhibition
Procedure: as §1

BFU-E [1] = test: HALO hematotoxicity assay, human BFU-E; format: cell-based; conditions: 7 days culture, iATP
Procedure: (§2) Investigation of the hematotoxic potential of UNBS5162 was undertaken by HemoGenix (Colorado Springs, Colo.). The effects of UNBS5162 on stem and progenitor cell populations from murine and human bone marrow were assessed using HALO (Hematopoietic/Hematotoxicity Assay through Luminescence Output) technology. Stem and hematopoietic progenitor cell populations were isolated from mouse and human bone marrow samples, plated at a concentration of 1.0×10^4 cells/well and cultured for 5 and 7 days, respectively, in the presence of growth factors and increasing concentrations of UNBS5162 ranging from 0.5 nM to 50 μM. The proliferative or growth potential of cell populations was determined from intracellular ATP (iATP) concentrations and a luciferin/luciferase bioluminescence signal detection system. All samples were assayed in eight replicates. The results are presented as estimated inhibitory concentration (IC) values.

BFU-E [2] = test: HALO hematotoxicity assay, mouse BFU-E; format: cell-based; conditions: 5 days culture, iATP
Procedure: as §2

CFC-GEMM = test: HALO hematotoxicity assay, mouse CFC-GEMM; format: cell-based; conditions: 5 days culture, iATP
Procedure: as §2

[3] = tested on: CXCL1, CXCL2, CXCL3, CXCL5, CXCL6, and CXCL8 chemokines; test: CXCL chemokine expression (microarray and ELISA), PC-3; format: cell-based, human; conditions: 1 μM five times a week
Procedure: Two different Quantikine ELISA kits (R&D Systems, Abingdon, UK) for the quantification of human CXCL1 and CXCL8 (IL-8) were used in this study in accordance with the manufacturer's instructions. Cell culture supernatants were collected after different treatments and periods, with multiple aliquots taken and stored at −20° C. until analysis.

## CN(C)CCN1C(=O)c2cccc3cc(NC(N)=O)cc(c23)C1=O [UNBS5162, N-{2-[2-(dimethylamino)ethyl]-1,3-dioxo-2,3-dihydro-1H-benzo[de]isoquinolin-5-yl}urea]
PC-3
  pro-autophagic effects (acidic vesicular organelles): had a proautophagic effect
PC-3; listed as example 2
  pro-autophagic effects (acidic vesicular organelles): pro-autophagic effects
U-373 MG; 22 hours on the 25% of the most motile cells
  Emax at 0.1 µM: -29%
U-373 MG; 22 hours on the 50% of the most motile cells
  Emax at 0.1 µM: -24%
U-373 MG; 22 hours on the 100% of cells, at the 10^−7 M
  Emax: -20%
Hs683 or U373 cells
  apoptotic events (Annexin V-FITC): induces moderate apoptotic events
MCF-7
  IC50: 46.5 µM
E2F1
  E2F1 expression at protein and mRNA levels: dramatic decrease in E2F1 expression
A549
  IC50: 21.2 µM
BFU-E [1]; 168 h
  IC50: 3.6 µM
  IC90: 17.6 µM
BFU-E [1]
  IC75: 8.16 µM
BFU-E [2]; 120 h
  IC50: 5.53 µM
  IC90: 9.11 µM
BFU-E [2]
  IC75: 7.03 µM
CFC-GEMM; 120 h
  IC50: 6.22 µM
  IC90: 8.96 µM
CFC-GEMM
  IC75: 7.48 µM
[3]
  expression of proangiogenic CXCL chemokines (mRNA and protein): dramatically decreased
